Data reported in patent US20150306090A1, “ORALLY ADMINISTERED MEDICAL COMPOSITION” (ASTELLAS PHARMA INC., priority 2012, published 2015).
In brackets after ≈: the same amount, converted by molar mass.

Assay: physchem
Assay type: physicochemical
From the text: Further, the current product (Vesicare (registered trademark)) has been placed on the market, as a drug-immediate-release formulation. Furthermore, although the active ingredient is not the same, a bi-layered tablet comprising a modified release portion containing tamsulosin or a pharmaceutically acceptable salt thereof, and an immediate release portion containing solifenacin or a pharmaceutically acceptable salt thereof, is known (Patent literature 7).

With `O=C(O[C@H]1CN2CCC1CC2)N1CCc2ccccc2[C@@H]1c1ccccc1` [solifenacin, (R)-quinuclidin-3-yl (S)-1-phenyl-1,2,3,4-tetrahydroisoquinoline-2-carboxylate] the solubility (pH 6.8, aqueous buffer) was 430 mg/mL (≈ 1190 mM) and the solubility (water) was 610 mg/mL (≈ 1680 mM).
